# Columns and labels:
# [1] = Anti-settlement assay with barnacle cyprid larvae (settlement inhibition and mortality, 48 h); format: in vivo, Balanus amphitrite; settings: in vivo, other: larvae immersed in seawater containing the compound; Balanus amphitrite cyprid larvae, 48 h incubation; read-out: LC50 (larval mortality)
# Description: (§1) Compounds dissolved in DMSO were sequentially administered to the wells, starting with a concentration of 25 µg/mL and proceeding with serial half-logarithmic dilutions. The volume of the compound in each well was maintained at […], with seawater as the blank control, DMSO as the negative control, and SeaNine 211 serving as the positive control. Utilizing a stereo microscope, a 1 mL micropipette was employed to introduce 995 μL of seawater and between 21 and 25 cyprid larvae into each well of a 24-well plate. Subsequently, the plates were incubated in a darkened, temperature-controlled environment for 48 h. […] This observation facilitated the calculation of mortality and settlement rates of the barnacle cyprids, crucial for assessing the antifouling properties of the compounds. The determination of EC50 values for the inhibition of barnacle larval attachment and LC50 values for larval mortality offered an evaluation of the compounds’ efficacy in deterring barnacle larval adherence and their associated toxicity.
# [2] = test system: Balanus amphitrite; assay: as above; format: in vivo; settings: for EC50: Amphibalanus amphitrite, read-out: EC50 (inhibition of barnacle larval settlement); for LC50/EC50: Balanus amphitrite, ratio >15 indicating low toxicity
# Description: as §1
# [3] = test system: Balanus amphitrite cyprid larvae; assay: Rescue (resuscitation) assay of Balanus amphitrite cyprid larvae; format: in vivo; settings: 1 μg/mL for 24 h, rinsed, settlement observed after 48 h
# [4] = Zebrafish embryo toxicity assay; format: in vivo; settings: in vivo, other: embryos immersed in compound solution in wells, 48 h exposure, read-out: LC50 at 48 h post-fertilization
# Description: (§2) The zebrafish embryo toxicity assay was conducted according to the method described by Huang et al., with slight modifications. Test compounds were dissolved in 0.5% DMSO to prepare a concentration series (0.1, 1, 5, 25, 50 μg/mL), which was then dispensed into 24-well plates. Fifteen cleavage-stage embryos were added to each well. The plates were incubated at 28 °C, and embryonic development was evaluated under a stereomicroscope after 48 h of exposure.
# [5] = test system: zebrafish embryos; assay: Zebrafish embryo toxicity assay; format: in vivo; settings: for phenotype of zebrafish embryos versus control: 48 h
# Description: as §2
# [6] = Balanus amphitrite cyprid larvae, 48 h incubation
Molecule,LC50 at 48 h [1],"EC50 [2, 6]",LC50/EC50 [2],other results
"COC(=O)C12OCC34C(CC5C(C)=C(O)C(=O)CC5(C)C3C(O)C1O)OC(=O)C(OC(=O)CCCCCl)C24 (stereo not shown) [Compound 2, 15-O-(5′-Chlorovaleryl)-Bruceolide]",1.12 ± 0.144 µg/mL,0.417 ± 0.185 µg/mL,2.6978,
COC(=O)C12OCC34C(CC5C(C)=C(O)C(=O)CC5(C)C3C(O)C1O)OC(=O)C(OC(=O)c1ccc(Cl)nc1)C24 (stereo not shown) [Compound 6],5.77 ± 2.54 µg/mL,0.34 ± 0.104 µg/mL,16.9633,recovery rate [3]: high recovery rates; LC50 at 48 h [4]: 8.18 µg/mL; phenotype of zebrafish embryos versus control [5]: no significant phenotypic differences
COC(=O)C12OCC34C(CC5C(C)=C(O)C(=O)CC5(C)C3C(O)C1O)OC(=O)C(OC(=O)c1ccc(Cl)s1)C24 (stereo not shown) [Compound 5],6.14 ± 0.173 µg/mL,2.02 ± 0.237 µg/mL,3.0330,
"COC(=O)C12OCC34C(CC5C(C)=C(O)C(=O)CC5(C)C3C(O)C1O)OC(=O)C(OC(=O)c1ccc(C(C)=O)s1)C24 (stereo not shown) [Compound 14, 15-O-(3′-Acetyl-Thiophen-6′-Carbonyl)-Bruceolide]",7.92 ± 0.243 µg/mL,2.15 ± 0.727 µg/mL,3.6926,
"COC(=O)C12OCC34C(CC5C(C)=C(O)C(=O)CC5(C)C3C(O)C1O)OC(=O)C(OC(=O)CCC#N)C24 (stereo not shown) [Compound 12, 15-O-(3′-Cyanopropanoyl)-Bruceolide]",2.8 ± 0.122 µg/mL,1.39 ± 0.135 µg/mL,2.0219,
COC(=O)C12OCC34C(CC5C(C)=C(O)C(=O)CC5(C)C3C(O)C1O)OC(=O)C(OC(=O)c1ccc(Cl)cc1)C24 (stereo not shown) [Compound 4],0.741 ± 0.082 µg/mL,0.353 ± 0.101 µg/mL,2.1018,
"CCCCCCCCn1sc(Cl)c(Cl)c1=O [SeaNine 211, reference compound]",,,,"EC50 (inhibition of barnacle larval settlement) [2, 6]: 1.9363 ± 0.4128 µg/mL; LC50 (larval mortality) [2, 6]: 33.9306 ± 2.0625 µg/mL; LC50 at 48 h post-fertilization ([5]; 48 h exposure): 7.2236 µg/mL"
"COC(=O)C12OCC34C(CC5C(C)=C(O)C(=O)CC5(C)C3C(O)C1O)OC(=O)C(OC(=O)Cc1cccc(C#N)c1)C24 (stereo not shown) [Compound 13, 15-O-(5′-Cyano-Phenyl-3′-Acetyl)-Bruceolide]",6.61 ± 0.112 µg/mL,1.84 ± 0.179 µg/mL,3.5854,
"COC(=O)C12OCC34C(CC5C(C)=C(O)C(=O)CC5(C)C3C(O)C1O)OC(=O)C(OC(=O)CCCCBr)C24 (stereo not shown) [Compound 1, 15-O-(5′-Bromovaleryl)-Bruceolide]",0.842 ± 0.112 µg/mL,0.523 ± 0.123 µg/mL,,
"brusatol [B1, reference compound]",,,,"EC50 (inhibition of barnacle larval settlement) [2, 6]: 2.7826 ± 0.6874 µg/mL"
"COC(=O)C12OCC34C(CC5C(C)=C(O)C(=O)CC5(C)C3C(O)C1O)OC(=O)C(OC(=O)Cc1cccc(F)c1)C24 (stereo not shown) [Compound 8, 15-O-(5′-Fluorophenylacetyl)-Bruceolide]",5.91 ± 1.03 µg/mL,1.12 ± 0.103 µg/mL,5.2723,
"COC(=O)C12OCC34C(CC5C(C)=C(O)C(=O)CC5(C)C3C(O)C1O)OC(=O)C(OC(=O)CCCCl)C24 (stereo not shown) [Compound 3, 15-O-(4′-Chlorobutanoyl)-Bruceolide]",6.24 ± 2.62 µg/mL,0.147 ± 0.0332 µg/mL,42.2922,recovery rate [3]: high recovery rates; resuscitation rate [3]: 71.11%; LC50 at 48 h [4]: 15.8 µg/mL; phenotype of zebrafish embryos versus control [5]: no significant phenotypic differences

# — article PMC11765156 (International Journal of Molecular Sciences, 2025)
